PMC8445441, “Elucidating the mechanism by which synthetic helper peptides sensitize Pseudomonas aeruginosa to multiple antibiotics” (PLoS Pathogens, 2021)
Where two headings read alike, the source gives them in different places.

Columns and labels:
P. aeruginosa HM-214 = conditions: strain HM-214; antibiotic + D-11 (MICb/MICbc 128/4)
Method in brief: (§1)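 Triplicate microdilution MICs: MHB, two-fold series, equal-volume inoculum from ~1 × 10^6 CFU/mL suspension, 37 °C, 18 h, lowest concentration lacking visible growth.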

P. aeruginosa AUMC-Pa-3 = assay: microbe, parasite or virus in culture
Method in brief: as §1

P. aeruginosa AUMC-Pa-4 = assay: microbe, parasite or virus in culture
Method in brief: as §1

P. aeruginosa AUMC-Pa-5 = assay: microbe, parasite or virus in culture
Method in brief: as §1

P. aeruginosa AUMC-Pa-6 = assay: microbe, parasite or virus in culture
Method in brief: as §1

P. aeruginosa PAO1 = assay: microbe, parasite or virus in culture; conditions: PAO1; for FICI / MICac: the MIC for the antibiotic in the combination: S3 Table
Method in brief: as §1

[1] = tested on: clinical P. aeruginosa isolates; assay: microbe, parasite or virus in culture; conditions: Pseudomonas aeruginosa, 18 h, antibiotic alone
Method in brief: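 MIC is the lowest drug concentration showing no visible growth after 18 h at 37 °C. Two-fold dilutions in MHB were combined with an equal volume of bacterial suspension (about 1 × 10^6 CFU/mL), following CLSI broth microdilution, in triplicate.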

P. aeruginosa NR-31040 = assay: microbe, parasite or virus in culture; parameters: MICa: MIC of the antibiotic / MICac: MIC of the antibiotic in the combination: unit not given beside the values
Method in brief: as §1

P. aeruginosa ATCC27853 = assay: microbe, parasite or virus in culture; parameters: MICa: MIC of the antibiotic / MICac: MIC of the antibiotic in the combination: unit not given beside the values
Method in brief: as §1

P. aeruginosa NR-31041 = assay: microbe, parasite or virus in culture; parameters: MICa: MIC of the antibiotic / MICac: MIC of the antibiotic in the combination: unit not given beside the values
Method in brief: as §1

P. aeruginosa PA14 = assay: microbe, parasite or virus in culture; parameters: MICa: MIC of the antibiotic / MICac: MIC of the antibiotic in the combination: unit not given beside the values
Method in brief: as §1

P. aeruginosa PAK = assay: microbe, parasite or virus in culture; parameters: MICa: MIC of the antibiotic / MICac: MIC of the antibiotic in the combination: unit not given beside the values
Method in brief: as §1

P. aeruginosa AUMC-Pa-1 = conditions: strain AUMC-Pa-1; antibiotic + D-11 (MICb/MICbc 128/4)
Method in brief: as §1

P. aeruginosa AUMC-Pa-2 = conditions: strain AUMC-Pa-2; antibiotic + D-11 (MICb/MICbc 64/4)
Method in brief: as §1

- MIC (P. aeruginosa AUMC-Pa-3; Pseudomonas aeruginosa, AUMCPA3, 18 h, read-out: MICa: MIC of the antibiotic): > 128 µM
- MICac: MIC of the antibiotic in the combination (P. aeruginosa AUMC-Pa-3; strain AUMC-Pa-3, with D-11 at MICbc 4, unit not given): 16
- MIC (P. aeruginosa AUMC-Pa-4; Pseudomonas aeruginosa, AUMCPA4, 18 h, read-out: MICa: MIC of the antibiotic): > 128 µM
- MICac: MIC of the antibiotic in the combination (P. aeruginosa AUMC-Pa-4; strain AUMC-Pa-4, with D-11 at MICbc 4, unit not given): 16
- MIC (P. aeruginosa AUMC-Pa-5; Pseudomonas aeruginosa, AUMCPA5, 18 h, read-out: MICa: MIC of the antibiotic): > 128 µM
- MICac: MIC of the antibiotic in the combination (P. aeruginosa AUMC-Pa-5; strain AUMC-Pa-5, with D-11 at MICbc 4, unit not given): >128/128
- MIC (P. aeruginosa AUMC-Pa-6; Pseudomonas aeruginosa, AUMCPA6, 18 h, read-out: MICa: MIC of the antibiotic): > 128 µM
- MICac: MIC of the antibiotic in the combination (P. aeruginosa AUMC-Pa-6; strain AUMC-Pa-6, with D-11 at MICbc 4, unit not given): 64
- MIC (P. aeruginosa PAO1; Pseudomonas aeruginosa, PAO1, 18 h, read-out: MICa: the MIC of antibiotics, S3 Table, antibiotic alone): > 128 µM
- MICac: the MIC for the antibiotic in the combination (P. aeruginosa PAO1; with 2 μM D-11): 32 µM
- MICac: the MIC for the antibiotic in the combination (P. aeruginosa PAO1; with 4 μM D-11): 16 µM
- MIC ([1]; read-out: Antibiotic sensibility (MIC) of clinical P. aeruginosa isolate AUMC-Pa-1, strain AUMC-Pa-1): > 128 µM
- MIC ([1]; read-out: Antibiotic sensibility (MIC) of clinical P. aeruginosa isolate AUMC-Pa-2, strain AUMC-Pa-2): > 128 µM
- MIC ([1]; read-out: Antibiotic sensibility (MIC) of clinical P. aeruginosa isolate AUMC-Pa-3, strain AUMC-Pa-3): > 128 µM
- MIC ([1]; read-out: Antibiotic sensibility (MIC) of clinical P. aeruginosa isolate AUMC-Pa-4, strain AUMC-Pa-4): > 128 µM
- MIC ([1]; read-out: Antibiotic sensibility (MIC) of clinical P. aeruginosa isolate AUMC-Pa-5, strain AUMC-Pa-5): > 128 µM
- MIC ([1]; read-out: Antibiotic sensibility (MIC) of clinical P. aeruginosa isolate AUMC-Pa-6, strain AUMC-Pa-6): > 128 µM
- MIC ([1]; read-out: Antibiotic sensibility (MIC) of clinical P. aeruginosa isolate HM-214, strain HM-214): > 128 µM
- MIC ([1]; read-out: Antibiotic sensibility (MIC) of clinical P. aeruginosa isolate NR-31040, strain NR-31040): > 128 µM
- MIC ([1]; read-out: Antibiotic sensibility (MIC) of clinical P. aeruginosa isolate NR-31041, strain NR-31041): > 128 µM
- MIC (P. aeruginosa NR-31040; Pseudomonas aeruginosa, NR31040, 18 h, read-out: MICa: MIC of the antibiotic): > 128 µM
- MICac: MIC of the antibiotic in the combination (P. aeruginosa NR-31040; strain NR-31040, with D-11 at MICbc 4, unit not given): 64
- MIC (P. aeruginosa ATCC27853; Pseudomonas aeruginosa, ATCC27853, 18 h, read-out: MICa: MIC of the antibiotic): > 128 µM
- MICac: MIC of the antibiotic in the combination (P. aeruginosa ATCC27853; strain ATCC27853, with D-11 at MICbc 4, unit not given): 32
- MIC (P. aeruginosa NR-31041; Pseudomonas aeruginosa, NR31041, 18 h, read-out: MICa: MIC of the antibiotic): > 128 µM
- MICac: MIC of the antibiotic in the combination (P. aeruginosa NR-31041; strain NR-31041, with D-11 at MICbc 4, unit not given): 16
- MIC (P. aeruginosa PA14; Pseudomonas aeruginosa, PA14, 18 h, read-out: MICa: MIC of the antibiotic): > 128 µM
- MICac: MIC of the antibiotic in the combination (P. aeruginosa PA14; strain PA14, with D-11 at MICbc 4, unit not given): 32
- MIC (P. aeruginosa PAK; Pseudomonas aeruginosa, 18 h, read-out: MICa: MIC of the antibiotic): > 128 µM
- MICac: MIC of the antibiotic in the combination (P. aeruginosa PAK; strain PAK, with D-11 at MICbc 4, unit not given): 32
Structure (SMILES): COc1cc(Cc2cnc(N)nc2N)cc(OC)c1OC [Trimethoprim]
- FICI (P. aeruginosa HM-214): 0.281
- FICI (P. aeruginosa AUMC-Pa-3; strain AUMC-Pa-3, antibiotic + D-11 (MICb/MICbc 128/4)): 0.094
- FICI (P. aeruginosa AUMC-Pa-4; strain AUMC-Pa-4, antibiotic + D-11 (MICb/MICbc 128/4)): 0.156
- FICI (P. aeruginosa AUMC-Pa-5; strain AUMC-Pa-5, antibiotic + D-11 (MICb/MICbc 64/4)): 0.563
- FICI (P. aeruginosa AUMC-Pa-6; strain AUMC-Pa-6, antibiotic + D-11 (MICb/MICbc 64/4)): 0.313
- FICI (P. aeruginosa PAO1; antibiotic + 2 μM D-11): 0.188
- FICI (P. aeruginosa PAO1; antibiotic + 4 μM D-11): 0.188
- FICI (P. aeruginosa NR-31040; strain NR-31040, antibiotic + D-11 (MICb/MICbc 128/4)): 0.281
- FICI (P. aeruginosa ATCC27853; strain ATCC27853, antibiotic + D-11 (MICb/MICbc 32/4)): 0.250
- FICI (P. aeruginosa NR-31041; strain NR-31041, antibiotic + D-11 (MICb/MICbc 64/4)): 0.125
- FICI (P. aeruginosa PA14; strain PA14, antibiotic + D-11 (MICb/MICbc 128/4)): 0.156
- FICI (P. aeruginosa PAK; strain PAK, antibiotic + D-11 (MICb/MICbc 64/4)): 0.188
- FICI (P. aeruginosa AUMC-Pa-1): 0.156
- FICI (P. aeruginosa AUMC-Pa-2): 0.188
